Results as given in ChEMBL document CHEMBL1137060, “Inactivation of S-adenosylhomocysteine hydrolase with haloethyl and dihalocyclopropyl esters derived from homoadenosine-6'-carboxylic acid” (Bioorg Med Chem Lett, 2004).
pKi: −log10 of the molar value.

Tests used:
Adenosylhomocysteinase [1] = target: T1, Adenosylhomocysteinase (Homo sapiens, UniProt P23526); experiment: Inactivation of human placental AdoHcy hydrolase
Target sequence in this assay (P23526 2-432 limits assumed): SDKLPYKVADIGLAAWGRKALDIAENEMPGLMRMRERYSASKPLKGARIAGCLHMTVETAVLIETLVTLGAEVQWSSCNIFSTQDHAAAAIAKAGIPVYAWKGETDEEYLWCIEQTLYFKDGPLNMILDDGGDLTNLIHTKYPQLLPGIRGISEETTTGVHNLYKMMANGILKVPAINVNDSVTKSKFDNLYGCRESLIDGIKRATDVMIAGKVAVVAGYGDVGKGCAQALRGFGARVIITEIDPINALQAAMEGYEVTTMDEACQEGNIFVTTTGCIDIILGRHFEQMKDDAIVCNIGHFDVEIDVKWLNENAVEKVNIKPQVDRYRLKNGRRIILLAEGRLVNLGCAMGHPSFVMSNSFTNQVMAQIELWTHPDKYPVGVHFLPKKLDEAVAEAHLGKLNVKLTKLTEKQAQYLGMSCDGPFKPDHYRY

Adenosylhomocysteinase [2] = target: T1, Adenosylhomocysteinase; experiment: Inhibition of human placental AdoHcy hydrolase
Target sequence in this assay (P23526 whole entry): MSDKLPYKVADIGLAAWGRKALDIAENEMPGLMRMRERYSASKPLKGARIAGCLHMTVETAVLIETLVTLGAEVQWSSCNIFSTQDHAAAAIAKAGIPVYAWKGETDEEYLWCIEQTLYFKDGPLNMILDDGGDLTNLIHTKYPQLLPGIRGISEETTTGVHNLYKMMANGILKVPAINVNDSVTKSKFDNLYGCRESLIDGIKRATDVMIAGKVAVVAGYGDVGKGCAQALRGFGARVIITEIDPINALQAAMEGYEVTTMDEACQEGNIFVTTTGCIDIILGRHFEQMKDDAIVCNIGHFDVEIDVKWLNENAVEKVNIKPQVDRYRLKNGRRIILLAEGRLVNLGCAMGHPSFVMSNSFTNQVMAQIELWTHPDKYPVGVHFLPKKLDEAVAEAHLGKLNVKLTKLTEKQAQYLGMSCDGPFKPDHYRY

Row | K inact (Adenosylhomocysteinase [1]) [min⁻¹] | pKi (Adenosylhomocysteinase [2]) | Structure (SMILES)
1 | 0.19 | 4.12 | Nc1ncnc2c1ncn2C1O[C@H](CC(=O)OCCF)C(O)[C@H]1O (single isomer, unassigned)
2 | 0.09 | 3.12 | Nc1ncnc2c1ncn2C1O[C@H](CC(=O)OC2CC2(Cl)Cl)C(O)[C@H]1O (single isomer, unassigned)
3 | 0.43 | 3.52 | Nc1ncnc2c1ncn2C1O[C@H](CC(=O)OCCCl)C(O)[C@H]1O (single isomer, unassigned)
4 | 0.008 | 4.77 | Nc1ncnc2c1ncn2C1O[C@H](CC(=O)OC2CC2(F)F)C(O)[C@H]1O (single isomer, unassigned)
